Assay results as given in patent US9700058B2, “Dispersion and detachment of cell aggregates” (priority 2011, dated 2017).
Positions of bridges follow the written chain, without caps; N, C: chain ends. No end group written: not given here.

Assays:
Type in all cases: cell-based
[1] = system: Acinetobacter baumannii (clinical isolate); assay: Biofilm detachment, crystal violet, 96-well plate; settings: peptide 100 ng/ml, added after adhesion
Experimental: (§1) The peptides depicted in Table 1 (each with a cysteine attached to the N- and C-terminus of the peptides) were synthesized using solid-phase methods and were purified to 90% (Peptron, Inc.; Taejeon, South Korea). The peptides were dissolved in 20 μl dimethyl sulfoxide and diluted in double distilled water to a concentration of 10 mg/ml. Additional dilutions were performed in phosphate buffered saline (PBS).
(§2) The ability of these peptides to prevent microbial adhesion to a surface or detach microbial adhesion from a surface were measured against the following microbial strains: Pseudomonas aeruginosa (ATCC27853), Staphylococcus aureus (ATCC25923), Candida albicans (ATCC14053) and Acinetobacter baumannii (clinical isolate). Specifically, peptides diluted to concentrations of 100 ng/ml were incubated with the foregoing microbes for 24 hours.
(§3) Biofilms of the foregoing microorganisms were grown in a 96-well found-bottom polystyrene plate. Specifically, 180 μl of overnight cultures were added to the wells with 20 μl of each peptide diluted in PBS, either simultaneously to measure prevention or after a period of time to measure detachment from 4 hours up to 24 hours post incubation. After 24 hours of incubation at 37° C., each well was washed with water and stained with 250 μl of crystal violet solution. The crystal violet solution was then removed by thoroughly washing the wells with water. To quantify the number of bacteria cells attached to the wells, the crystal violet was solubilized in 250 μl of 1% sodium dodecyl sulfate and the absorbance was measured at 595 nm.

[2] = system: Acinetobacter baumannii (clinical isolate); assay: Biofilm prevention, crystal violet, 96-well plate; settings: added simultaneously, 24 h, 37° C.
Experimental: as §1
(§4) The ability of these peptides to prevent microbial adhesion to a surface or detach microbial adhesion from a surface were measured against the following microbial strains: Pseudomonas aeruginosa (ATCC27853), Staphylococcus aureus (ATCC25923), Candida albicans (ATCC14053) and Acinetobacter baumannii (clinical isolate). […]
as §3

[3] = system: Staphylococcus aureus (ATCC25923); assay: Biofilm detachment, crystal violet, 96-well plate; settings: peptide 100 ng/ml, added after adhesion
Experimental: as §1, §2, §3
(§5) The ability of these peptides to (1) prevent microbial adhesion to a surface and to (2) detach microbes already adhered to a surface were measured against the following microbial strains: Pseudomonas aeruginosa (ATCC27853), Staphylococcus aureus (ATCC25923), Candida albicans (ATCC14053) and/or Escherichia coli. The resulting percentage of prevention or detachment, relative to control wells in which the microbes was allowed to culture in the absence of peptides, are indicated in FIGS. 13 to 16.

[4] = system: Pseudomonas aeruginosa (ATCC27853); assay: Biofilm detachment, crystal violet, 96-well plate; settings: peptide 100 ng/ml, added after adhesion
Experimental: as §1, §2, §3, §5

[5] = system: Candida albicans (ATCC14053); assay: Biofilm prevention, crystal violet, 96-well plate; settings: added simultaneously, 24 h, 37° C.
Experimental: as §1, §4, §3, §5

[6] = system: Pseudomonas aeruginosa (ATCC27853); assay: Biofilm prevention, crystal violet, 96-well plate; settings: added simultaneously, 24 h, 37° C.
Experimental: as §1, §4, §3, §5

[7] = system: Staphylococcus aureus (ATCC25923); assay: Biofilm prevention, crystal violet, 96-well plate; settings: peptide 100 ng/ml, added simultaneously, 24 h, 37° C.
Experimental: as §1, §2, §3, §5

[8] = system: Pseudomonas aeruginosa (ATCC 27853); assay: Detachment of pre-formed biofilm from a well (Examples 1-7); settings: different concentrations
Experimental: A biofilm was created by incubating Pseudomonas aeruginosa (ATCC 27853) overnight in wells at 37° C., allowing the microorganism to attach to the well surface. Eqt2Z-cyc peptide [Custom Peptide Synthesis; Peptron, Korea] at different concentrations was subsequently added to the wells and allowed to incubate overnight. The P.a. control was Pseudomonas aeruginosa alone.
A biofilm was created by culturing Pseudomonas aeruginosa (ATCC 27853) for 2 hours in a well at 37° C. Eqt2Z-cyc peptide at different concentrations was subsequently added to the well and allowed to incubate overnight. The Abac10-cyc peptide served as a negative control. The P.a. control was Pseudomonas aeruginosa alone.
A biofilm was created by culturing Pseudomonas aeruginosa (ATCC 27853) for 2 hours in a well at 37° C. Eqt2Z-cyc peptide at different concentrations was subsequently added to the well and allowed to incubate for 24 hours. The Abac10-cyc peptide served as a negative control. The P.a. control was Pseudomonas aeruginosa alone. […] Staining was performed with crystal violet at OD 595 nm.
A biofilm was created by culturing Pseudomonas aeruginosa (ATCC 27853) for 2 hours in a well at 37° C. grZ14s-nvCyc peptide [Custom Peptide Synthesis; Peptron, Korea] at different concentrations was subsequently added to the well and allowed to incubate for 24 hours. The Abac10-cyc peptide served as a negative control. The P.a. control was Pseudomonas aeruginosa alone. […] Staining was performed with crystal violet at OD 595 nm.
A biofilm was created by culturing Pseudomonas aeruginosa (ATCC 27853) for 24 hours in a well at 37° C. Eqt2Z-cyc peptide at different concentrations was subsequently added to the well and allowed to incubate for 24 hours. The Abac10-cyc peptide served as a negative control. The P.a. control was Pseudomonas aeruginosa alone. […] Staining was performed with crystal violet at OD 595 nm.
A biofilm was created by culturing Pseudomonas aeruginosa (ATCC 27853) for 24 hours in a well at 37° C. grZ14s-nvCyc peptide at different concentrations was subsequently added to the well and allowed to incubate for 24 hours. The Abac10-cyc peptide served as a negative control. The P.a. control was Pseudomonas aeruginosa alone. […] Staining was performed with crystal violet at OD 595 nm.
A biofilm was created by culturing Pseudomonas aeruginosa (ATCC 27853) for 24 hours in a well at 37° C. PhyscoZ-Cyc peptide [Custom Peptide Synthesis; Peptron, Korea] at different concentrations was subsequently added to the well and allowed to incubate for 24 hours. The P.a. control was Pseudomonas aeruginosa alone. […] Staining was performed with crystal violet at OD 595 nm.

[9] = system: Candida albicans (ATCC14053); assay: Biofilm detachment, crystal violet, 96-well plate; settings: peptide 100 ng/ml, added after adhesion
Experimental: as §1, §2, §3, §5

[10] = 24-hour biofilm, 24-hour peptide incubation, crystal violet OD 595 nm

Sequence	Detachment (%) (100 ng/ml) [1]	Biofilm prevention (%) ([2]; peptide 100 ng/ml)	Detachment (%) (100 ng/ml) [3]	Detachment (%) (100 ng/ml) [4]	Biofilm prevention (%) ([5]; peptide 10 ng/ml)	Biofilm prevention (%) ([6]; peptide 100 ng/ml)	Biofilm prevention (%) [7] [%]	microorganism detachment ([8]; 2-hour biofilm, 24-hour peptide incubation, crystal violet OD 595 nm)	microorganism detachment ([8]; 2-hour biofilm, overnight peptide incubation)	microorganism detachment [8, 10]	microorganism detachment ([8]; overnight biofilm, overnight peptide incubation)	Biofilm prevention (%) ([2]; peptide 10 ng/ml)	Detachment (%) (100 ng/ml) [9]	Biofilm prevention (%) ([5]; peptide 100 ng/ml)	Biofilm prevention (%) ([6]; peptide 10 ng/ml)
CSVPFDYNLYSNWC [SelagZ-cyc] (disulfide 1-14 (inferred))	50	80	35	67	80	88	88	–	–	–	–	–	–	–	–
CSVPYDYNWYSNWC (disulfide 1-14 (inferred)) [Eqt2Z-cyc]	–	–	–	–	–	–	–	far greater microorganism detachment than in the P.a. control or negative control	far greater microorganism detachment than in the P.a. control or negative control	far greater microorganism detachment than in the P.a. control or negative control	far greater microorganism detachment than in the P.a. control	–	–	–	–
CTVNSFDYDWYNVC (disulfide 1-14 (inferred)) [AnoliZ-cyc]	–	–	72	90	–	95	75	–	–	–	–	92	72	55	–
CRVESFNYDWYNVC (disulfide 1-14 (inferred)) [NilotiZ-cyc]	–	87	65	40	–	90	63	–	–	–	–	–	65	30	–
CSAPYNFNFYSNWC (disulfide 1-14 (inferred)) [EchoZ-cyc]	60	80	35	65	80	90	85	–	–	–	–	–	–	–	–
CSRYSSFDYDWYNVC (disulfide 1-15 (inferred)) [XenoZ-S-cyc]	49	95	–	30	–	–	65	–	–	–	–	–	50	75	57
CNVHSFDYDWYNVC (disulfide 1-14 (inferred)) [CanisZ-cyc]	73	–	–	72	–	95	75	–	–	–	–	60	45	80	–
CKVNSFDYDWYNVC (disulfide 1-14 (inferred)) [MeleagZ-cyc]	–	95	80	65	–	82	73	–	–	–	–	–	62	30	–
CRVESFDFDWYNIC (disulfide 1-14 (inferred)) [SalmoZ-cyc]	–	95	75	80	–	–	80	–	–	–	–	–	73	55	90
CSVPFDYNLYSNWC [PhyscoZ-cyc] (also: cyclised)	50	–	70	75	62	95	65	–	–	far greater microorganism detachment than in the P.a. control	–	–	–	–	–
CRINSFDYDWYNVC (disulfide 1-14 (inferred)) [TetraoZ-cyc]	–	–	43	–	–	45	52	–	–	–	–	70	55	25	–
CTVHSFDYDWYNVC (disulfide 1-14 (inferred)) [CapraZ-cyc]	–	90	55	65	–	68	42	–	–	–	–	–	60	25	–
CSELSSFNFDWYNVC (disulfide 1-15 (inferred)) [CionaZ-S-cyc]	80	52	–	78	–	75	90	–	–	–	–	–	42	68	–
